From patent US9617239B2, “Phenoxy thiophene sulfonamides and their use as inhibitors of glucuronidase” (North Carolina Central University, priority 2010, dated 2017)

Molecular target: E. coli β-glucuronidase (Escherichia coli (strain K12), UniProt P05804)
Test: β-Glucuronidase assay (4MUG hydrolysis, fluorescence)
Assay type: biochemical
Conditions: Table 1; compounds from 35,000 compound diversity set library; 50 pM enzyme, 125 uM 4MUG; read-out: IC50, β-Glucuronidase Inhibitory activity of phenoxythiophene sulfonamides

Compound	IC50 [µM]
COc1ccc2ccc(Oc3ccc([S+](=O)([O-])NCc4cccc5ccccc45)s3)cc2c1 [BRITE-354458]	175
O=[S+]([O-])(NCc1cccc2ccccc12)c1ccc(Oc2ccc3c(c2)CCCC3)s1 [BRITE-355030]	149
O=[S+]([O-])(NCc1cccc2ccccc12)c1ccc(Oc2ccc(OCc3ccccc3)cc2)s1 [BRITE-355169]	153
O=[S+]([O-])(NCc1cccc2ccccc12)c1cc(Cl)c(Oc2cccc(-c3ccccc3)c2)s1 [BRITE-355180]	102
COc1cccc(OC)c1Oc1sc([S+](=O)([O-])NCc2cccc3ccccc23)cc1Cl [BRITE-355201]	202
O=[S+]([O-])(NCc1cccc2ccccc12)c1cc(Cl)c(Oc2cccnc2)s1 [BRITE-355211]	192
Cc1cc(Oc2sc([S+](=O)([O-])NCc3cccc4ccccc34)cc2Cl)cc(C(C)C)c1 [BRITE-355214]	135
CCCOc1ccc(Oc2sc([S+](=O)([O-])NCc3cccc4ccccc34)cc2Cl)cc1 [BRITE-355221]	402
O=[S+]([O-])(NCc1cccc2ccccc12)c1cc(Cl)c(Oc2ccc3c(c2)OCO3)s1 [BRITE-355233]	376
Cc1cc(C)cc(Oc2sc([S+](=O)([O-])NCc3cccc4ccccc34)cc2Cl)c1 [BRITE-355234]	152
O=[S+]([O-])(NCc1cccc2ccccc12)c1cc(Cl)c(Oc2ccc3c(c2)CCCC3)s1 [BRITE-355244]	123
O=[S+]([O-])(NCc1cccc2ccccc12)c1cc(Cl)c(Oc2ccccc2)s1 [BRITE-355253]	444

Tested on: rats
Test: not given
Conditions: background, reference 14; cited from earlier work

Compound	reversal of SN-38-related epithelial cell death and severe diarrhea from CPT-11
O=C1OC(C(O)C(=O)O)C(O)C1O (stereo not shown) [saccharic acid 1,4-lactone]	partially reversed
